According to patent publication US12122756B2, “Biflavone compound against I-type herpes simplex virus, and preparation method therefor and use thereof” (priority 2022, dated 2024):
Like-named read-outs stand apart in the source and are kept apart here. Marks after values point to notes of the source that are not given here. Blank lines part the entries; values can stand above or below the molecule they belong to.

Experiments:
Vero cells = assay: Cytotoxic assay of tested drugs against Vero cells (CCK-8); format: cell-based, African green monkey; details: for highest non-toxic concentration: Vero cells, CCK-8
Protocol: 3. Cytotoxic assay of tested drugs against Vero cells: Vero cells were seed in a 96 well plate at 3×10^4 cells/well. The next day, after growing into a monolayer, the test drug was diluted to obtain 8-9 concentrations and added to each well. Meanwhile, a normal control group was established, with 4 replicate wells for each group. After 72 hours, the toxicity of the test drug to Vero cells was measured using CCK-8 assay, and the highest non-toxic concentration and half toxic concentration (TC50) of the drug on the cells were calculated.

HSV-I = assay: Cytopathic effect (CPE) assay: inhibition of pathological changes of Vero cells induced by HSV-I (CCK-8); format: cell-based, Herpes simplex virus type I; details: for inhibitory effect on HSV-I induced cytopathic changes (in words): CPE method; for Inhibition rate (%) / OD value: n = 5
Protocol: (1) Determination of the inhibitory activities of the test drugs on pathological changes of Vero cells induced by HSV-I using the cytopathic effect (CPE) assay: Vero cells were seeded in a 96-well plate and grew into a monolayer the next day. 100TCID50 HSV-I was added to infect cells, and then the cell maintenance solution containing different concentrations of the test drug was replaced, and a cell control group was included. The cells were cultured in an incubator for 72 hours. Then, the inhibitory effect of the drug on virus-induced cytopathic changes was measured using the CCK-8 assay, and thus the 50% inhibiting concentration (IC50) of the drug was calculated.

[1] = Solubility (highest solubility used as starting concentration; water solubility)
[2] = 1st (highest) concentration (971, 1600, 2620, 390 μg·ml^−1 for Compounds 1-4), 72 h
[3] = 2nd concentration, 50% serial dilution from column-head concentration, 72 h
[4] = 3rd concentration, 50% serial dilution from column-head concentration, 72 h
[5] = 4th concentration, 50% serial dilution from column-head concentration, 72 h
[6] = 5th concentration, 50% serial dilution from column-head concentration, 72 h
[7] = 6th concentration, 50% serial dilution from column-head concentration, 72 h
[8] = 7th concentration, 50% serial dilution from column-head concentration, 72 h
[9] = 8th concentration, 50% serial dilution from column-head concentration, 72 h
[10] = 9th concentration, 50% serial dilution from column-head concentration, 72 h
[11] = Concentration 1 (3 concentrations, 50% dilution based on highest non-toxic concentration)

Compound: COc1c(O)cc2occ(-c3ccc(O)c(S(=O)(=O)[O-])c3)c(=O)c2c1O.[Na+] [Compound 1, sodium tectorigenin-5′-sulphonate]
- TC50 on Vero cells (Vero cells): 390.312 µg/mL
- growth inhibition rate (%) on Vero cells (Vero cells; [2]): 57.86** %
- growth inhibition rate (%) on Vero cells (Vero cells; [3]): 49.99** %
- growth inhibition rate (%) on Vero cells (Vero cells; [4]): 42.06** %
- growth inhibition rate (%) on Vero cells (Vero cells; [5]): 39.97** %
- growth inhibition rate (%) on Vero cells (Vero cells; [6]): 34.95** %
- growth inhibition rate (%) on Vero cells (Vero cells; [7]): 28.48** %
- growth inhibition rate (%) on Vero cells (Vero cells; [8]): 27.14** %
- growth inhibition rate (%) on Vero cells (Vero cells; [9]): 25.37** %
- growth inhibition rate (%) on Vero cells (Vero cells; [10]): −1.57%
- inhibitory effect on HSV-I induced cytopathic changes (in words) (HSV-I): the effect was not significant
- Inhibition rate (%) (HSV-I; [11]): 4.41%
- OD value (HSV-I; [11]): 0.37 ± 0.04
- Inhibition rate (%) (HSV-I; Concentration 2): 3.29%
- OD value (HSV-I; Concentration 2): 0.37 ± 0.02
- Inhibition rate (%) (HSV-I; Concentration 3): 2.26%
- OD value (HSV-I; Concentration 3): 0.36 ± 0.03

- solubility [1]: 2620 µg/mL
Compound: CCOc1ccc(-c2coc3cc(OCC)c(OC)c(O)c3c2=O)cc1S(=O)(=O)[O-].[Na+] [Compound 3, sodium 4,7′-diethyltectorigenin-5′-sulphonate]
- growth inhibition rate (%) on Vero cells (Vero cells; [2]): 45.06** %
- growth inhibition rate (%) on Vero cells (Vero cells; [3]): 40.80** %
- growth inhibition rate (%) on Vero cells (Vero cells; [4]): 36.94** %
- growth inhibition rate (%) on Vero cells (Vero cells; [5]): 34.23** %
- growth inhibition rate (%) on Vero cells (Vero cells; [6]): 32.36** %
- growth inhibition rate (%) on Vero cells (Vero cells; [7]): 27.12** %
- growth inhibition rate (%) on Vero cells (Vero cells; [8]): 25.55** %
- growth inhibition rate (%) on Vero cells (Vero cells; [9]): 22.06** %
- growth inhibition rate (%) on Vero cells (Vero cells; [10]): −0.24%
- TC50 on Vero cells (Vero cells; 72 h, CCK-8, Probit regression): 3020.44 µg/mL
- highest non-toxic concentration (Vero cells; 72 h): 3.496 µg/mL
- inhibitory effect on HSV-I induced cytopathic changes (in words) (HSV-I): no significant inhibitory effect
- Inhibition rate (%) (HSV-I; [11]): 6.20%
- OD value (HSV-I; [11]): 0.38 ± 0.05
- Inhibition rate (%) (HSV-I; Concentration 2): 8.65%
- OD value (HSV-I; Concentration 2): 0.39 ± 0.10
- Inhibition rate (%) (HSV-I; Concentration 3): 4.09%
- OD value (HSV-I; Concentration 3): 0.37 ± 0.03

- solubility [1]: 390 µg/mL
Compound: CCOc1ccc(-c2coc3c(Cc4c(OCC)c(OC)c(O)c5c(=O)c(-c6ccc(OCC)c(S(=O)(=O)[O-])c6)coc45)c(OCC)c(OC)c(O)c3c2=O)cc1S(=O)(=O)[O-].[Na+].[Na+] [Compound 4, sodium 8,8″-methylene-di-(4,7′-diethyltectorigenin-5′-sulphonate)]
- growth inhibition rate (%) on Vero cells (Vero cells; [2]): 28.40** %
- growth inhibition rate (%) on Vero cells (Vero cells; [3]): 27.54** %
- growth inhibition rate (%) on Vero cells (Vero cells; [4]): 26.53** %
- growth inhibition rate (%) on Vero cells (Vero cells; [5]): 23.48** %
- growth inhibition rate (%) on Vero cells (Vero cells; [6]): 22.02** %
- growth inhibition rate (%) on Vero cells (Vero cells; [7]): 18.43** %
- growth inhibition rate (%) on Vero cells (Vero cells; [8]): 14.94** %
- growth inhibition rate (%) on Vero cells (Vero cells; [9]): 9.42%
- growth inhibition rate (%) on Vero cells (Vero cells; [10]): −23.23%
- TC50 on Vero cells (Vero cells; 72 h, CCK-8, Probit regression): 11308.7 µg/mL
- highest non-toxic concentration (Vero cells; 72 h): 0.864 µg/mL
- inhibitory effect on HSV-I induced cytopathic changes (in words) (HSV-I): no significant inhibitory effect
- Inhibition rate (%) (HSV-I; [11]): 5.96%
- OD value (HSV-I; [11]): 0.32 ± 0.02
- Inhibition rate (%) (HSV-I; Concentration 2): 6.09%
- OD value (HSV-I; Concentration 2): 0.32 ± 0.01
- Inhibition rate (%) (HSV-I; Concentration 3): 5.99%
- OD value (HSV-I; Concentration 3): 0.32 ± 0.01
